Assays:
colic distension in rat [1] = assay: Colic distension in rat (colon irritated with 1% acetic acid, balloon distension, abdominal cramps counted); type: in vivo; details: for Mean number of abdominal cramps ± standard error: 10 min colic distension, * = different from placebo at p < 0.05 (Dunnett); for Activity in the model of colic distension (in words) / Dose at/from which active in colic distension: oral route; for Activity in the model of colic distension (in words): 1 to 20 mg/kg
Text: This physiopathological mechanism inspired the creation of the model of distension of the colon first irritated with 1% acetic acid, in rat. […] IIS is characterized by the presence of abdominal pain. Patients having this pathology have a lowered threshold of digestive sensitivity.
The analgesic activity was studied on the model of digestive pain in observed rat. This pain is brought about by distension of the colon with a balloon.
Male Sprague-Dawley rats of about 180 g, fasted from the day before, are used. Under light fluothane anesthesia, an intrarectal probe is introduced 5 cm into the anus and 1.5 ml of 1% acetic acid is injected. An hour and 30 minutes after irritation, a latex balloon (empty diameter 2 mm, length 1 cm) mounted on a polyethylene catheter is introduced into the colon to the site of the irritation.
The product to be tested or the vehicle (distilled water) is administered per os in a volume of 1 ml, then the rat is observed on a Petri dish.
Distension of the colon is carried out 2 hours and 20 minutes after irritation. It is effected at a fixed volume of 1.5 ml of distilled water. The colic distension gives rise to digestive pain manifested by abdominal cramps whose number reflects the intensity of the pain. The colic distension is maintained for 10 minutes in the course of which the abdominal cramps are counted.
Statistical analysis is carried out with the help of the Dunnett test which compares a same group of vehicle animals (40) to several groups of rats (six animals per group) having received the studied molecules. The threshold of significance is fixed at 5%.
The molecules are tested by the oral route at 1-10-20 mg/kg. They are dissolved in distilled water.
The vehicle used as placebo is comprised by distilled water.
Comparative tests 1 to 5 are products available commercially and are used as such, except ornithine chlorhydrate which is salted out by methods known in the literature and stored in solution in water.

colic distension in rat [2] = details: cited from earlier work; for Activity on the model of colic distension (in words): background statement
[3] = test system: writhing test in rat or a mouse; details: i.p. phenylbenzoquinone or 3% acetic acid; cited from earlier work
somatic pain test in rat = details: doses between 300 and 1000 mg/kg by subcutaneous route in rat; cited from earlier work
writhing test in mice = details: 500 and 1000 mg/kg by intravenous route in mice; cited from earlier work

Di-arginine Keto-glutarate [Example 3]
Mean number of abdominal cramps ± standard error (colic distension in rat [1]; 1 mg/kg p.o.): 17 ± 9

CN1CC[C@]23c4c5ccc(O)c4O[C@H]2[C@@H](O)C=C[C@H]3[C@H]1C5 [Morphine]
Activity on the model of colic distension (in words) (colic distension in rat [2]): active

CC(=O)Nc1ccc(O)cc1 [paracetamol]
Activity on the model of colic distension (in words) (colic distension in rat [2]): inactive
Activity in the writhing test (in words) [3]: active

Cl.NCCC[C@H](N)C(=O)O [Comparison 2, Ornithine, HCl]
Activity in a somatic pain test (in words) (somatic pain test in rat): active
Activity in the writhing test (in words) (writhing test in mice): active
Mean number of abdominal cramps ± standard error (colic distension in rat [1]; 1 mg/kg p.o.): 20 ± 3
Mean number of abdominal cramps ± standard error (colic distension in rat [1]; 10 mg/kg p.o.): 19 ± 6
Mean number of abdominal cramps ± standard error (colic distension in rat [1]; 20 mg/kg p.o.): 18 ± 6
Activity in the model of colic distension (in words) (colic distension in rat [1]): inactive

CC(=O)Oc1ccccc1C(=O)O [aspirin]
Activity on the model of colic distension (in words) (colic distension in rat [2]): inactive
Activity in the writhing test (in words) [3]: active

Ornithine and Glutamine Keto-glutarate [Example 5]
Dose at/from which active in colic distension (colic distension in rat [1]): ≥ 1 mg/kg

NC(=O)CC[C@H](N)C(=O)O [Comparison 4, Glutamine]
Activity in the test of colic distension (in words) (colic distension in rat [2]; 6 mg/kg by rectal route in rat (local administration on the irritated colic mucosa)): active
Mean number of abdominal cramps ± standard error (colic distension in rat [1]; 1 mg/kg p.o.): 21 ± 2
Dose at/from which active in colic distension (colic distension in rat [1]): 10 mg/kg

Di-ornithine Keto-glutarate [Example 2]
Dose at/from which active in colic distension (colic distension in rat [1]): 1 mg/kg

O=C(O)CCC(=O)C(=O)O [Comparison 1, α-keto-glutaric acid]
Mean number of abdominal cramps ± standard error (colic distension in rat [1]; 1 mg/kg p.o.): 17 ± 1
Mean number of abdominal cramps ± standard error (colic distension in rat [1]; 10 mg/kg p.o.): 17 ± 4
Mean number of abdominal cramps ± standard error (colic distension in rat [1]; 20 mg/kg p.o.): 22 ± 6
Activity in the model of colic distension (in words) (colic distension in rat [1]): inactive

N=C(N)NCCC[C@H](N)C(=O)O [Comparison 5, Arginine]
Mean number of abdominal cramps ± standard error (colic distension in rat [1]; 1 mg/kg p.o.): 20 ± 6
Mean number of abdominal cramps ± standard error (colic distension in rat [1]; 10 mg/kg p.o.): 20 ± 9
Dose at/from which active in colic distension (colic distension in rat [1]): ≥ 20 mg/kg

Mono-ornithine Keto-butyrate [Example 6]
Dose at/from which active in colic distension (colic distension in rat [1]): ≥ 1 mg/kg

CCC(=O)C(=O)O [Comparison 3, α-keto-butyric acid]
Mean number of abdominal cramps ± standard error (colic distension in rat [1]; 1 mg/kg p.o.): 19 ± 2
Mean number of abdominal cramps ± standard error (colic distension in rat [1]; 10 mg/kg p.o.): 20 ± 3
Mean number of abdominal cramps ± standard error (colic distension in rat [1]; 20 mg/kg p.o.): 19 ± 3
Activity in the model of colic distension (in words) (colic distension in rat [1]): inactive

Mono-ornithine Keto-glutarate [Example 1]
Dose at/from which active in colic distension (colic distension in rat [1]): 1 mg/kg

Ornithine and Arginine Keto-glutarate [Example 4]
Mean number of abdominal cramps ± standard error (colic distension in rat [1]; 1 mg/kg p.o.): 18 ± 2

Source: US6429229B1, “Keto acid salts and amine derivatives, and their use for preparing medicines” (Chiesi S.A., priority 1998, dated 2002)
